Columns and labels:
Type in all cases: cell-based
[1] = tested on: E. coli DH5α; experiment: Antibacterial activity: MIC and growth curve against E. coli DH5α in 96-well plate; conditions: minimal inhibitory concentration against E. coli DH5α; 96-well plate, 5×10^5 CFU/mL, 37° C., judged after 8 h
How it was run: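 Log-phase bacteria (OD600 ~0.5) resuspended in LB at 5×10^5 CFU/mL, exposed to recombinant protein at 50, 25, 12.5 μg/mL final in triplicate, 37 °C shaking at 175 rpm. OD600 read every 30 min; MIC is lowest concentration showing no growth.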

[2] = tested on: E. coli BL21; experiment: MIC against Gram-negative bacteria: E. coli BL21
How it was run: (§1)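 The recombinant human-originated EGF domain proteins were serially diluted two-fold against bacteria at 5×10^5 CFU/mL in LB medium. After shaken incubation at 37° C, the lowest concentration with no bacterial growth was recorded as the MIC.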

[3] = tested on: Pseudomonas aeruginosa; experiment: MIC against Gram-negative bacteria: Pseudomonas aeruginosa
How it was run: as §1

[4] = tested on: Klebsiella pneumonia; experiment: MIC against Gram-negative bacteria: Klebsiella pneumonia
How it was run: as §1

[5] = tested on: Enterobacter cloacae; experiment: MIC against Gram-negative bacteria: Enterobacter cloacae
How it was run: as §1

[6] = tested on: Aeromonas hydrophila; experiment: MIC against Gram-negative bacteria: Aeromonas hydrophila
How it was run: as §1

[7] = tested on: Citrobacter diversus; experiment: MIC against Gram-negative bacteria: Citrobacter diversus
How it was run: as §1

[8] = tested on: Moraxella catarrhalis; experiment: MIC against Gram-negative bacteria: Moraxella catarrhalis
How it was run: as §1

[9] = tested on: Proteus mirabilis; experiment: MIC against Gram-negative bacteria: Proteus mirabilis
How it was run: as §1

[10] = tested on: Proteus vulgaris; experiment: MIC against Gram-negative bacteria: Proteus vulgaris
How it was run: as §1

[11] = tested on: Serratia marcescens; experiment: MIC against Gram-negative bacteria: Serratia marcescens
How it was run: as §1

[12] = E. coli BL21, 10 h cultivation at 37° C., 5×10^5 CFU/mL
[13] = P. aeruginosa, 10 h cultivation at 37° C., 5×10^5 CFU/mL
[14] = K. pneumonia, 10 h cultivation at 37° C., 5×10^5 CFU/mL
[15] = E. cloacae, 10 h cultivation at 37° C., 5×10^5 CFU/mL
[16] = A. hydrophila, 10 h cultivation at 37° C., 5×10^5 CFU/mL
[17] = C. diversus, 10 h cultivation at 37° C., 5×10^5 CFU/mL
[18] = M. catarrhalis, 10 h cultivation at 37° C., 5×10^5 CFU/mL
[19] = P. mirabilis, 10 h cultivation at 37° C., 5×10^5 CFU/mL
[20] = P. vulgaris, 10 h cultivation at 37° C., 5×10^5 CFU/mL
[21] = S. marcescens, 10 h cultivation at 37° C., 5×10^5 CFU/mL
[22] = 96-well plate, 5×10^5 CFU/mL, 37° C., 10 h

PRT1213 (HSDYCSQNTCLNGGKCSWTHGAGYVCKCPPQFSGKHCE; listed as Homo sapiens)
50 µg/mL: MIC against P. aeruginosa ([3]; Pseudomonas aeruginosa, 96-well plate, 5×10^5 CFU/mL, 37° C., 10 h) | MIC against A. hydrophila ([6]; Aeromonas hydrophila, 96-well plate, 5×10^5 CFU/mL, 37° C., 10 h) | MIC against P. vulgaris ([10]; Proteus vulgaris, 96-well plate, 5×10^5 CFU/mL, 37° C., 10 h)
100 µg/mL: MIC against E. cloacae ([5]; Enterobacter cloacae, 96-well plate, 5×10^5 CFU/mL, 37° C., 10 h)
12.5 µg/mL: MIC against M. catarrhalis ([8]; Moraxella catarrhalis, 96-well plate, 5×10^5 CFU/mL, 37° C., 10 h)
25 µg/mL: MIC [1] | MIC against E. coli BL21 ([2]; E. coli BL21, 96-well plate, 5×10^5 CFU/mL, 37° C., 10 h) | MIC against K. pneumonia ([4]; Klebsiella pneumonia, 96-well plate, 5×10^5 CFU/mL, 37° C., 10 h) | MIC against C. diversus ([7]; Citrobacter diversus, 96-well plate, 5×10^5 CFU/mL, 37° C., 10 h) | MIC against P. mirabilis ([9]; Proteus mirabilis, 96-well plate, 5×10^5 CFU/mL, 37° C., 10 h) | MIC against S. marcescens ([11]; Serratia marcescens, 96-well plate, 5×10^5 CFU/mL, 37° C., 10 h)

PRT932 (QVNECLSNPCIHGNCTGGLSGYKCLCDAGWVGINCE; listed as Homo sapiens)
12.5 µg/mL: MIC ([3]; P. aeruginosa, 10 h cultivation at 37° C.) | MIC ([4]; K. pneumonia, 10 h cultivation at 37° C.) | MIC ([6]; A. hydrophila, 10 h cultivation at 37° C.) | MIC ([8]; M. catarrhalis, 10 h cultivation at 37° C.) | MIC ([10]; P. vulgaris, 10 h cultivation at 37° C.) | MIC ([11]; S. marcescens, 10 h cultivation at 37° C.)
50 µg/mL: MIC ([2]; E. coli BL21, 10 h cultivation at 37° C.)
25 µg/mL: MIC [1] | MIC ([5]; E. cloacae, 10 h cultivation at 37° C.) | MIC ([7]; C. diversus, 10 h cultivation at 37° C.) | MIC ([9]; P. mirabilis, 10 h cultivation at 37° C.)

PRT779 (VSPCSRGYCDHGGQCQHLPSGPRCSCVSFSIYTAWGEHCE; listed as Homo sapiens)
50 µg/mL: MIC (μg/mL) P. aeruginosa [3, 13] | MIC (μg/mL) E. cloacae [5, 15] | MIC (μg/mL) C. diversus [7, 17] | MIC (μg/mL) P. mirabilis [9, 19] | MIC (μg/mL) S. marcescens [11, 21]
12.5 µg/mL: MIC [1] | MIC (μg/mL) E. coli BL21 [2, 12] | MIC (μg/mL) K. pneumonia [4, 14] | MIC (μg/mL) A. hydrophila [6, 16] | MIC (μg/mL) M. catarrhalis [8, 18] | MIC (μg/mL) P. vulgaris [10, 20]

PRT893 (NINECSSQPCRHGGTCQDRDNAYLCFCLKGTTGPNCE; listed as Homo sapiens)
50 µg/mL: MIC (μg/mL) P. aeruginosa [3, 13] | MIC (μg/mL) C. diversus [7, 17] | MIC (μg/mL) P. vulgaris [10, 20]
25 µg/mL: MIC (μg/mL) E. coli BL21 [2, 12] | MIC (μg/mL) K. pneumonia [4, 14] | MIC (μg/mL) A. hydrophila [6, 16] | MIC (μg/mL) M. catarrhalis [8, 18]
12.5 µg/mL: MIC [1] | MIC (μg/mL) E. cloacae [5, 15] | MIC (μg/mL) P. mirabilis [9, 19] | MIC (μg/mL) S. marcescens [11, 21]

PRT724 (DINECEQFGTCPQHCRNTKGSYECVCADGFTSMSDRPGKRCA; listed as Homo sapiens)
25 µg/mL: MIC E. cloacae [5, 22] | MIC C. diversus [7, 22] | MIC P. mirabilis [9, 22] | MIC S. marcescens [11, 22]
12.5 µg/mL: MIC [1] | MIC E. coli BL21 [2, 22] | MIC P. aeruginosa [3, 22] | MIC K. pneumonia [4, 22] | MIC A. hydrophila [6, 22] | MIC M. catarrhalis [8, 22] | MIC P. vulgaris [10, 22]

— patent US9833497B2, “Human originated EGF domain proteins and use of the same” (CHENGDU SOURCEBIO LIMITED-LIABILITY COMPANY, priority 2013, dated 2017)
